{
  "source": "patent US7786083B2",
  "about": "“Metastin derivatives and use thereof” (Takeda Pharmaceutical Company Limited, priority 2006, dated 2010)",
  "system": "metastin receptors",
  "test": "Measurement of agonist activity by assaying changes in intracellular calcium ion level (FLIPR, Fluo-4 NW)",
  "assay_type": "cell-based, human",
  "details": "specific activity of the EC50 of a test compound based on the EC50 of Metastin (45-54), metastin receptor expression CHO cells",
  "in_short": "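CHO/dhfr⁻ cells stably expressing human or rat metastin receptor, seeded 3×10^4/well for 24 h, loaded with Fluo-4 NW 30 min at 37 °C in HBSS with 0.1% BSA, 20 mM HEPES pH 7.4 and 1 mM probenecid. Compound-stimulated intracellular calcium change read on FLIPR.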",
  "note": "*1 amine or outer side, *2 acyl side, *3 side chain or, on linkers, in order; H or OH if unused. Where a SMILES comes first, the peptide text is derived from it. Where no end group is shown, it is not given here. [ ]: non-standard residue; d: D form. Pro(trans-4-F) = O=C(O)[C@@H]1C[C@@H](F)CN1; X8 = O=C(CSC[C@H](Cc1ccccc1)N[*:1])[*:2]; 2Nal = N[C@@H](Cc1ccc2ccccc2c1)C(=O)O; X1 = CC(C)C[C@H](CCCN[*:1])C(=O)[*:2]; Arg(Me) = CNC(=N)NCCC[C@H](N)C(=O)O; Dap(CONH2) = NC(=O)NC[C@H](N)C(=O)O; Ala(cPr) = N[C@@H](CC1CC1)C(=O)O; Hyp = O=C(O)[C@@H]1C[C@@H](O)CN1; Cha = N[C@@H](CC1CCCCC1)C(=O)O; Cba = N[C@@H](CC1CCC1)C(=O)O; Dap = NC[C@H](N)C(=O)O",
  "data": [
    {"compound": "CC(=O)N[C@H](Cc1ccc(O)cc1)C(=O)N1C[C@H](O)C[C@H]1C(=O)N[C@@H](CC(N)=O)C(=O)N[C@H](C(=O)N[C@@H](CC1CCCCC1)C(=O)NCC(=O)N[C@@H](CC1CC1)C(=O)N[C@@H](CCCNC(=N)N)C(=O)N[C@@H](Cc1c[nH]c2ccccc12)C(N)=O)[C@@H](C)O", "note": "[Compound No. 940, des(1)-Ac-[D-Tyr2,Hyp3,Thr5,Cha6,Ala(cPr)8,Trp10]MS10] (Ac-[dY][Hyp]NT[Cha]G[Ala(cPr)]RW-NH2)", "values": [
      {"measurement": "Specific Activity", "result": 0.5}
    ]},
    {"compound": "CC(=O)N[C@H](Cc1ccc(O)cc1)C(=O)N[C@@H](CCC(=O)O)C(=O)N[C@@H](CC(N)=O)C(=O)N[C@H](C(=O)N[C@@H](CC1CCCCC1)C(=O)NCC(=O)N[C@@H](CC1CC1)C(=O)N[C@@H](CCCNC(=N)N)C(=O)N[C@@H](Cc1c[nH]c2ccccc12)C(N)=O)[C@@H](C)O", "note": "[Compound No. 942, des(1)-Ac-[D-Tyr2,Glu3,Thr5,Cha6,Ala(cPr)8,Trp10]MS10] (Ac-[dY]ENT[Cha]G[Ala(cPr)]RW-NH2)", "values": [
      {"measurement": "Specific Activity", "result": 0.4}
    ]},
    {"compound": "CNC(=N)NCCC[C@H](NC(=O)[C@H](CC(C)C)NC(=O)CSC[C@H](Cc1ccccc1)NC(=O)[C@@H](NC(=O)[C@H](CC(N)=O)NC(=O)[C@@H]1C[C@@H](O)CN1C(=O)[C@@H](Cc1ccc(O)cc1)NC(C)=O)[C@@H](C)O)C(=O)N[C@@H](Cc1c[nH]c2ccccc12)C(N)=O", "note": "[Compound No. 944, des(1)-Ac-[D-Tyr2,Hyp3,Thr5,Phe6Ψ(CH2S)Gly7,Arg(Me)9,Trp10]MS10] (Ac-[dY][Hyp]NT[X8]L[Arg(Me)]W-NH2)", "values": [
      {"measurement": "Specific Activity", "result": 0.7}
    ]},
    {"compound": "CNC(=N)NCCC[C@H](NC(=O)[C@H](CC1CC1)NC(=O)CNC(=O)[C@H](CC1CCC1)NC(=O)[C@@H](NC(=O)[C@H](CC(N)=O)NC(=O)[C@@H]1C[C@@H](O)CN1C(=O)[C@@H](Cc1ccc(O)cc1)NC(C)=O)[C@@H](C)O)C(=O)N[C@@H](Cc1c[nH]c2ccccc12)C(N)=O", "note": "[Compound No. 945, des(1)-Ac-[D-Tyr2,Hyp3,Thr5,Ala(cBu)6,Ala(cPr)8,Arg(Me)9,Trp10]MS10] (Ac-[dY][Hyp]NT[Cba]G[Ala(cPr)][Arg(Me)]W-NH2)", "values": [
      {"measurement": "Specific Activity", "result": 0.7}
    ]},
    {"compound": "CNC(=N)NCCC[C@H](NC(=O)[C@H](CC1CCC1)NC(=O)CNC(=O)[C@H](CC1CCCCC1)NC(=O)[C@@H](NC(=O)[C@H](CC(N)=O)NC(=O)[C@@H]1C[C@@H](O)CN1C(=O)[C@@H](Cc1ccc(O)cc1)NC(C)=O)[C@@H](C)O)C(=O)N[C@@H](Cc1c[nH]c2ccccc12)C(N)=O", "note": "[Compound No. 946, des(1)-Ac-[D-Tyr2,Hyp3,Thr5,Cha6,Ala(cBu)8,Arg(Me)9,Trp10]MS10] (Ac-[dY][Hyp]NT[Cha]G[Cba][Arg(Me)]W-NH2)", "values": [
      {"measurement": "Specific Activity", "result": 0.5}
    ]},
    {"compound": "CNC(=N)NCCC[C@H](NC(=O)[C@H](CC1CC1)NC(=O)CNC(=O)[C@H](CC1CCCCC1)NC(=O)[C@H](CO)NC(=O)[C@H](CNC(N)=O)NC(=O)[C@@H]1C[C@@H](O)CN1C(=O)[C@@H](Cc1ccc(O)cc1)NC(C)=O)C(=O)N[C@@H](Cc1c[nH]c2ccccc12)C(N)=O", "note": "[Compound No. 948, des(1)-Ac-[D-Tyr2,Hyp3,Alb4,Ser5,Cha6,Ala(cPr)8,Arg(Me)9,Trp10]MS10] (Ac-[dY][Hyp][Dap(CONH2)]S[Cha]G[Ala(cPr)][Arg(Me)]W-NH2)", "values": [
      {"measurement": "Specific Activity", "result": 0.5}
    ]},
    {"compound": "CNC(=N)NCCC[C@H](NC(=O)[C@H](CC1CC1)NC(=O)CNC(=O)[C@H](CC1CCCCC1)NC(=O)CNC(=O)[C@H](CNC(N)=O)NC(=O)[C@@H]1C[C@@H](O)CN1C(=O)[C@@H](Cc1ccc(O)cc1)NC(C)=O)C(=O)N[C@@H](Cc1c[nH]c2ccccc12)C(N)=O", "note": "[Compound No. 949, des(1)-Ac-[D-Tyr2,Hyp3,Alb4,Gly5,Cha6,Ala(cPr)8,Arg(Me)9,Trp10]MS10] (Ac-[dY][Hyp][Dap(CONH2)]G[Cha]G[Ala(cPr)][Arg(Me)]W-NH2)", "values": [
      {"measurement": "Specific Activity", "result": 0.7}
    ]},
    {"compound": "CNC(=N)NCCC[C@H](NC(=O)[C@H](CC1CC1)NC(=O)CNC(=O)[C@H](CC1CCCCC1)NC(=O)[C@H](CN)NC(=O)[C@H](CNC(N)=O)NC(=O)[C@@H]1C[C@@H](O)CN1C(=O)[C@@H](Cc1ccc(O)cc1)NC(C)=O)C(=O)N[C@@H](Cc1c[nH]c2ccccc12)C(N)=O", "note": "[Compound No. 951, des(1)-Ac-[D-Tyr2,Hyp3,Alb4,Dap5,Cha6,Ala(cPr)8,Arg(Me)9,Trp10]MS10] (Ac-[dY][Hyp][Dap(CONH2)][Dap][Cha]G[Ala(cPr)][Arg(Me)]W-NH2)", "values": [
      {"measurement": "Specific Activity", "result": 0.7}
    ]},
    {"compound": "CC(=O)N[C@H](Cc1ccc(O)cc1)C(=O)N1C[C@H](O)C[C@H]1C(=O)N[C@@H](CNC(N)=O)C(=O)N[C@H](C(=O)N[C@@H](CC1CCCCC1)C(=O)NCCC[C@@H](CC(C)C)C(=O)N[C@@H](CCCNC(=N)N)C(=O)N[C@@H](Cc1c[nH]c2ccccc12)C(N)=O)[C@@H](C)O", "note": "[Compound No. 952, des(1)-Ac-[D-Tyr2,Hyp3,Alb4,Thr5,Cha6,Gly7Ψ(CH2CH2)Leu8,Trp10]MS10] (Ac-[dY][Hyp][Dap(CONH2)]T[Cha][X1]RW-NH2)", "values": [
      {"measurement": "Specific Activity", "result": 1.3}
    ]},
    {"compound": "CNC(=N)NCCC[C@H](NC(=O)[C@H](CC1CC1)NC(=O)CNC(=O)[C@H](CC1CCCCC1)NC(=O)[C@@H](NC(=O)[C@H](CNC(N)=O)NC(=O)[C@@H]1C[C@@H](O)CN1C(=O)[C@@H](Cc1ccc(O)cc1)NC(C)=O)[C@@H](C)O)C(=O)N[C@@H](Cc1c[nH]c2ccccc12)C(N)=O", "note": "[Compound No. 953, des(1)-Ac-[D-Tyr2,Hyp3,Alb4,Thr5,Cha6,Ala(cPr)8,Arg(Me)9,Trp10]MS10] (Ac-[dY][Hyp][Dap(CONH2)]T[Cha]G[Ala(cPr)][Arg(Me)]W-NH2)", "values": [
      {"measurement": "Specific Activity", "result": 0.5}
    ]},
    {"compound": "CC(=O)N[C@H](Cc1ccc(O)cc1)C(=O)N1C[C@H](O)C[C@H]1C(=O)N[C@@H](CC(N)=O)C(=O)N[C@H](C(=O)N[C@@H](CC1CCCCC1)C(=O)NCCC[C@@H](CC(C)C)C(=O)N[C@@H](CCCNC(=N)N)C(=O)N[C@@H](Cc1c[nH]c2ccccc12)C(N)=O)[C@@H](C)O", "note": "[Compound No. 956, des(1)-Ac-[D-Tyr2,Hyp3,Thr5,Cha6,Gly7Ψ(CH2CH2)Leu8,Trp10]MS10] (Ac-[dY][Hyp]NT[Cha][X1]RW-NH2)", "values": [
      {"measurement": "Specific Activity", "result": 1.1}
    ]},
    {"compound": "CNC(=N)NCCC[C@H](NC(=O)[C@@H](CCCNC(=O)[C@H](CC1CCCCC1)NC(=O)[C@@H](NC(=O)[C@H](CNC(N)=O)NC(=O)[C@@H]1C[C@@H](O)CN1C(=O)[C@@H](Cc1ccc(O)cc1)NC(C)=O)[C@@H](C)O)CC(C)C)C(=O)N[C@@H](Cc1c[nH]c2ccccc12)C(N)=O", "note": "[Compound No. 957, des(1)-Ac-[D-Tyr2,Hyp3,Alb4,Thr5,Cha6,Gly7Ψ(CH2CH2)Leu8,Arg(Me)9,Trp10]MS10] (Ac-[dY][Hyp][Dap(CONH2)]T[Cha][X1][Arg(Me)]W-NH2)", "values": [
      {"measurement": "Specific Activity", "result": 1.1}
    ]},
    {"compound": "CNC(=N)NCCC[C@H](NC(=O)[C@H](CC(C)C)NC(=O)NCC[C@H](Cc1ccccc1)NC(=O)[C@@H](NC(=O)[C@H](CC(N)=O)NC(=O)[C@@H]1C[C@@H](O)CN1C(=O)[C@@H](Cc1ccc(O)cc1)NC(C)=O)[C@@H](C)O)C(=O)N[C@@H](Cc1c[nH]c2ccccc12)C(N)=O", "note": "[Compound No. 968, des(1)-Ac-[D-Tyr2,Hyp3,Thr5,Phe6Ψ(CH2CH2)AzaGly7,Arg(Me)9,Trp10)MS10]", "values": [
      {"measurement": "Specific Activity", "result": 0.6}
    ]},
    {"compound": "des(1)-Ac-[D-Tyr2,Hyp3,Alb4,Ala5,Cha6,Ala(cPr)8,Arg(Me)9,Trp10]MS10 (Ac-[dY][Hyp][Dap(CONH2)]A[Cha]G[Ala(cPr)][Arg(Me)]W-NH2; SMILES CNC(=N)NCCC[C@H](NC(=O)[C@H](CC1CC1)NC(=O)CNC(=O)[C@H](CC1CCCCC1)NC(=O)[C@H](C)NC(=O)[C@H](CNC(N)=O)NC(=O)[C@@H]1C[C@@H](O)CN1C(=O)[C@@H](Cc1ccc(O)cc1)NC(C)=O)C(=O)N[C@@H](Cc1c[nH]c2ccccc12)C(N)=O) [Compound No. 947]", "values": [
      {"measurement": "Specific Activity", "result": 0.5}
    ]},
    {"compound": "des(1)-Ac-[D-Tyr2,Hyp3,Thr5,Gly7Ψ(CH2NH)Leu8,Arg(Me)9,Trp10]MS10 (Ac-[dY][Hyp]NTFGL[Arg(Me)]W-NH2; also: -CONH- between Gly and Leu replaced by -CH2NH-) [Compound No. 854]", "values": [
      {"measurement": "Specific Activity", "result": 2.9}
    ]},
    {"compound": "des(1)-Ac-[D-Tyr2,Hyp3,Thr5,Nal(2)6,Arg(Me)9,Trp10]MS10 (Ac-[dY][Hyp]NT[2Nal]GL[Arg(Me)]W; ends and bridges not checked) [Compound No. 919]", "values": [
      {"measurement": "Specific Activity", "result": 1.0}
    ]},
    {"compound": "des(1)-Ac-[D-Tyr2,Pro(4F)3,Thr5,Cha6,Ala(cPr)8,Arg(Me)9,Trp10]MS10 (Ac-[dY][Pro(trans-4-F)]NT[Cha]G[Ala(cPr)][Arg(Me)]W-NH2; SMILES CNC(=N)NCCC[C@H](NC(=O)[C@H](CC1CC1)NC(=O)CNC(=O)[C@H](CC1CCCCC1)NC(=O)[C@@H](NC(=O)[C@H](CC(N)=O)NC(=O)[C@@H]1C[C@@H](F)CN1C(=O)[C@@H](Cc1ccc(O)cc1)NC(C)=O)[C@@H](C)O)C(=O)N[C@@H](Cc1c[nH]c2ccccc12)C(N)=O) [Compound No. 959]", "values": [
      {"measurement": "Specific Activity", "result": 0.4}
    ]}
  ]
}
